Measured values taken from patent US8071600B2, “Derivatives of 4-piperazin-1-yl-4-benzo[B]thiophene suitable for the treatment of CNS disorders” (Otsuka Pharmaceutical Co., Ltd., priority 2005, dated 2011).

What was measured:
[1] = molecular target: T1, Dopamine D2 receptor (Rattus norvegicus, UniProt P61169); assay: Dopamine D2 receptor binding assay ([3H]-raclopride); settings: Dopamine D2 receptor binding test, rat corpus striatum membrane, Ki calculated from IC50 by Cheng-Prussoff formula
T1 construct: from tissue; host or cells: Wistar rat brain, corpus striatum membranes
T1 sequence (P61169 whole entry): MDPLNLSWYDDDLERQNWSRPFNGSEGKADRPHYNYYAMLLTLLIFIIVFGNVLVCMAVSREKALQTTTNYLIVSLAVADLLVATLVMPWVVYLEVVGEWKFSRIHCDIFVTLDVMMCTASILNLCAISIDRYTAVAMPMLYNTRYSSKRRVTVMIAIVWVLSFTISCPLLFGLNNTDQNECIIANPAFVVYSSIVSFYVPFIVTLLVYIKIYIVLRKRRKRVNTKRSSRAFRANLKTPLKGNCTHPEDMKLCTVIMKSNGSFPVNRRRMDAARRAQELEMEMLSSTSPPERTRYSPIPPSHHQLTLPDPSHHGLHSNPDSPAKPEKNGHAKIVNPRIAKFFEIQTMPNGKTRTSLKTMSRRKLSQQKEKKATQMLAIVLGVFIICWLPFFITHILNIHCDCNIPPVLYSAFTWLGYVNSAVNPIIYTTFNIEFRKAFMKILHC
Protocol: 1) Dopamine D2 Receptor Binding Assay
The assay was performed according to the method by Kohler et al. (Kohler C, Hall H, Ogren S O and Gawell L, Specific in vitro and in vivo binding of 3H-raclopride. A potent substituted benzamide drug with high affinity for dopamine D-2 receptors in the rat brain. Biochem. Pharmacol., 1985; 34: 2251-2259).
Wistar male rats were decapitated, the brain was retrieved immediately and corpus striatum was taken out. It was homogenized in 50 mM tris(hydroxymethyl)aminomethane (Tris)-hydrochloric acid buffer (pH 7.4) of a volume 50 times of the weight of the tissue using a homogenizer with a high-speed rotating blade, and centrifuged at 4° C., 48,000×g for 10 minutes. The obtained precipitate was suspended again in the above-described buffer of a volume 50 times of the weight of the tissue and after incubated at 37° C. for 10 minutes, centrifuged in the above-described condition. The obtained precipitate was suspended in 50 mM (Tris)-hydrochloric acid buffer (containing 120 mM NaCl, 5 mM KCl, 2 mM CaCl2, 1 mM MgCl2, pH 7.4) of a volume 25 times of the weight of the tissue and preserved by freezing at −85° C. till it was used for binding assay as a membrane specimen.
The binding assay was performed using 40 μl of the membrane specimen, 20 μl of [^3H]-raclopride (final concentration 1 to 2 nM), 20 μl of a test drug and 50 mM Tris-hydrochloric acid buffer (containing 120 mM NaCl, 5 mM KCl, 2 mM CaCl2, 1 mM MgCl2, pH 7.4) so that the total amount was 200 μl (final dimethylsulfoxide concentration 1%). The reaction was performed at room temperature for 1 hour and terminated by conducting suction filtration with a cell harvester on a glass fiber filter plate. The filter plate made of glass fiber was washed with 50 mM Tris-hydrochloric acid buffer (pH 7.4), and after dried, a microplate liquid scintillation cocktail was added and the radioactivity was measured with a microplate scintillation counter. Radioactivity in the presence of 10 μM (+)-butaclamol hydrochloride was assumed as nonspecific binding.
(§1) IC50 value was calculated from concentration-dependent reaction using a non-linear analysis program. Ki value was calculated from IC50 value using Cheng-Prussoff formula.

[2] = molecular target: T2, Serotonin 5-HT2A receptor (Rattus norvegicus, UniProt P14842); assay: Serotonin 5-HT2A receptor binding assay ([3H]-Ketanserin); settings: Serotonin 5-HT2A receptor binding test, rat frontal cortex membrane, Ki calculated from IC50 by Cheng-Prussoff formula
T2 construct: from tissue; host or cells: Wistar rat brain, frontal cortex membranes
T2 sequence (P14842 whole entry): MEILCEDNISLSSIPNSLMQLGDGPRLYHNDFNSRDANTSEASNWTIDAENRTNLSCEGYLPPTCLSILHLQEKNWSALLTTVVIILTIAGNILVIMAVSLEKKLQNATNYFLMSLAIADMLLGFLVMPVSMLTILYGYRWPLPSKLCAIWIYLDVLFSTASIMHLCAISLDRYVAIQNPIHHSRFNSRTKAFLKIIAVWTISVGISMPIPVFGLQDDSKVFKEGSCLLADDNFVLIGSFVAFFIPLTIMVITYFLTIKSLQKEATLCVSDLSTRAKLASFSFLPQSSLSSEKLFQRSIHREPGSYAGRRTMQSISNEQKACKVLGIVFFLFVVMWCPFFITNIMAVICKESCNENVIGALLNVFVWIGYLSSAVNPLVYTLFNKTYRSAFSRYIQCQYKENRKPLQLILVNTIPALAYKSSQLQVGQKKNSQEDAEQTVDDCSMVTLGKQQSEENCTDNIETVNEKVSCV
Protocol: 2) Serotonin 5-HT2A Receptor Binding Assay
The assay was performed according to the method by Leysen J E et al. (Leysen J E, Niemegeers C J E, Van Nueten J M and Laduron P M. [3H] Ketanserin (R 41 468), a selective 3H-ligand for serotonin 2 receptor binding sites. Mol. Pharmacol., 1982, 21: 301-314).
Wistar male rats were decapitated, the brain was retrieved immediately and frontal cortex was taken out. It was homogenized in 0.25 M sucrose of a volume 10 times of the weight of the tissue using a Teflon glass homogenizer, and centrifuged at 4° C., 1,000×g for 10 minutes. The obtained supernatant was transferred to another centrifuge tube and suspended in 0.25 M sucrose of a volume 5 times of the weight of the tissue and the precipitate was centrifuged in the above-described condition. The obtained supernatant was combined with the supernatant obtained above and adjusted to a volume 40 times of the weight of the tissue with 50 mM Tris-hydrochloric acid buffer (pH 7.4), and centrifuged at 4° C., 35,000×g for 10 minutes. The obtained precipitate was suspended again in the above-described buffer of a volume 40 times of the weight of the tissue and centrifuged in the above-described condition. The obtained precipitate was suspended in the above-described buffer of a volume 20 times of the weight of the tissue and preserved by freezing at −85° C. till it was used for binding assay as a membrane specimen.
The binding assay was performed using 40 μl of the membrane specimen, 20 μl of [^3H]-Ketanserin (final concentration 1 to 3 nM), 20 μl of a test drug and 50 mM Tris-hydrochloric acid buffer (pH 7.4) so that the total amount was 200 μl (final dimethylsulfoxide concentration 1%). The reaction was performed at 37° C. for 20 minutes and terminated by conducting suction filtration with a cell harvester on a glass fiber filter plate.
The filter plate made of glass fiber was washed with 50 mM Tris-hydrochloric acid buffer (pH 7.4), and after dried, a microplate liquid scintillation cocktail was added and the radioactivity was measured with a microplate scintillation counter. Radioactivity in the presence of 10 μM spiperone was assumed as nonspecific binding.
as §1

[3] = tested on: serotonin (5-HT) uptake by rat brain synaptosome; assay: Serotonin (5-HT) uptake inhibitory activity by rat brain synaptosome; type: biochemical; settings: test compound 300 nM, tritium labeled 5-HT 8 nM, 10 minutes uptake at 37° C.
Protocol: Measurement of serotonin (5-HT) uptake inhibitory activity of a test compound by rat brain synaptosome
Wistar male rats were decapitated, the brain was retrieved and frontal cortex was dissected out, and it was homogenized in 0.32 M sucrose solution of a weight 20 times of the weight of the tissue using a Potter type homogenizer. The homogenate was centrifuged at 4° C., 1,000×g for 10 minutes, the obtained supernatant was further centrifuged at 4° C., 20,000×g for 20 minutes, and the pellet was suspended in an incubation buffer (20 mM Hepes buffer (pH 7.4) containing 10 mM glucose, 145 mM sodium chloride, 4.5 mM potassium chloride, 1.2 mM magnesium chloride, 1.5 mM calcium chloride), which was used as crude synaptosome fraction.
5-HT uptake reaction was performed in a volume of 200 μl using a 96-well round bottom plate and pargyline (final concentration 10 μM) and sodium ascorbate (final concentration 0.2 mg/ml) were contained in the incubation buffer upon reaction and used.
Incubation buffer (total counting), non-labeled 5-HT (final concentration 10 μM, non-specific counting) and the diluted test compound (final concentration 300 nM) were added to each well. One-tenth quantity of the final volume of the synaptosome fraction was added and after preincubated at 37° C. for 10 minutes, tritium labeled 5-HT solution (final concentration 8 nM) was added and uptake reaction was started at 37° C. The uptake time was 10 minutes and the reaction was terminated by vacuum filtration through a 96-well fiber glass filter paper plate, and after the filter paper was washed with cold normal saline, it was dried enough and Microscint0 (Perkin-Elmer) was added to the filter and remaining radioactivity on the filter was measured.
Serotonin uptake inhibitory activity (%) was calculated from the radioactivity of total counting as 100%, of non-specific counting as 0%, and of counting obtained with test compound. % of inhibition of 5-HT(%)=100−[(Count obtained with test compound−Nonspecific count (0% Uptake))/(Total count (100% Uptake)−Nonspecific count (0% Uptake))]×100 The results are shown in the next Table 314.

Work on `CNC(=O)c1cc(C)c(OCCCN2CCN(c3cccc4sccc34)CC2)c(OC)c1` [Example 252] yielded a melting point of 141.5 to 142.5 °C, a Ki [1] of 0.3 nM and a Ki [2] of 0.3 nM.
For `NC(=O)c1ccc(F)c(OCCCN2CCN(c3cccc4sccc34)CC2)c1` [Example 271], the melting point was 156.5 to 159 °C, the Ki [1] was 1.2 nM and the Ki [2] was 0.6 nM.
In the case of `COc1cc(CN(C)C)ccc1OCCCN1CCN(c2cccc3sccc23)CC1` [Example 301], the melting point is reported as 101 to 103 °C, the Ki [1] is reported as 0.2 nM and the Ki [2] is reported as 0.4 nM.
`CCNC(=O)Cc1ccc(OCCCN2CCN(c3cccc4sccc34)CC2)cc1` [Example 323] gave a melting point of 112.5 to 113.5 °C, a Ki [1] of 1.5 nM and a Ki [2] of 0.7 nM.
In the case of `NC(=O)Cc1ccc(OCCCN2CCN(c3cccc4sccc34)CC2)cc1` [Example 340], the melting point is reported as 149.5 to 150.5 °C, the Ki [1] is reported as 1.9 nM and the Ki [2] is reported as 4.8 nM.
For `NS(=O)(=O)c1ccc(OCCCN2CCN(c3cccc4sccc34)CC2)cc1` [Example 394], the melting point was 199 to 203 °C, the Ki [1] was 3.8 nM and the Ki [2] was 4.7 nM.
With `COc1cc(C(=O)NCC(OC)OC)cc(C)c1OCCCN1CCN(c2cccc3sccc23)CC1` [Example 802] the “Serotonin uptake inhibitory ratio (%) (300 nM)” value [3] was 96.6%, the Ki [1] was 0.6 nM and the Ki [2] was 1.4 nM.
With `COc1cc(NC(=O)CN)cc(C)c1OCCCN1CCN(c2cccc3sccc23)CC1` [Example 1060] the “Serotonin uptake inhibitory ratio (%) (300 nM)” value [3] was 97.5%, the Ki [1] was 0.1 nM and the Ki [2] was 1.2 nM.
In the case of `COc1cc(N2CCOC2=O)cc(CO)c1OCCCN1CCN(c2cccc3sccc23)CC1` [Example 1071], the “Serotonin uptake inhibitory ratio (%) (300 nM)” value [3] is reported as 94.4%, the Ki [1] is reported as 0.1 nM and the Ki [2] is reported as 1.3 nM.
With `COc1cc(N2CCCC2)cc(C)c1OCCCN1CCN(c2cccc3sccc23)CC1` [Example 1076] the “Serotonin uptake inhibitory ratio (%) (300 nM)” value [3] was 87.8%, the Ki [1] was 1.2 nM and the Ki [2] was 12.4 nM.
For `COc1cc(N2CCN(C(C)=O)CC2=O)cc(C)c1OCCCN1CCN(c2cccc3sccc23)CC1` [Example 1079], the “Serotonin uptake inhibitory ratio (%) (300 nM)” value [3] was 82.3%, the Ki [1] was 0.4 nM and the Ki [2] was 2.8 nM.
With `COC(=O)N1CCN(c2cc(C)c(OCCCN3CCN(c4cccc5sccc45)CC3)c(OC)c2)C(=O)C1` [Example 1080] the “Serotonin uptake inhibitory ratio (%) (300 nM)” value [3] was 95.6%, the Ki [1] was 0.6 nM and the Ki [2] was 3.4 nM.
In the case of `COc1cc(N2CCN(C(C)=O)CC2)cc(C)c1OCCCN1CCN(c2cccc3sccc23)CC1` [Example 1083], the “Serotonin uptake inhibitory ratio (%) (300 nM)” value [3] is reported as 96.3%, the Ki [1] is reported as 0.3 nM and the Ki [2] is reported as 1.5 nM.
With `COC(=O)N1CCN(c2cc(C=O)c(OCCCN3CCN(c4cccc5sccc45)CC3)c(OC)c2)CC1` [Example 1086] the “Serotonin uptake inhibitory ratio (%) (300 nM)” value [3] was 98.6%, the Ki [1] was 1 nM and the Ki [2] was 5.8 nM.
